The assay deals with T1, KRAS (G12D) (Homo sapiens, UniProt P01116, G12D).
T1 construct: in-cell western with KRAS G12D antibody after 24 h
T1 sequence (P01116 1-188 isoform P01116-2 G12D): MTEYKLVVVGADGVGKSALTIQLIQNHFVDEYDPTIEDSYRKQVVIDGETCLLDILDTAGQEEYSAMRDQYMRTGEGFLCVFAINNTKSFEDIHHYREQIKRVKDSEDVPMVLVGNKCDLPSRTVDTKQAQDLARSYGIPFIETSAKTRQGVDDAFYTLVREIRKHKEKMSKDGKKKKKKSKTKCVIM
In words: KRAS (G12D) cellular degradation assay in AsPC-1 cells. Format: cell-based. To be noted: 24 hours, antibody fluorescence (Odyssey CLX), DC50 half-maximal degradation concentration. The method, then:
ASPC-1 and PK-59 cellular assays ASPC-1 (ATCC cat. CRL-1682) and PK-59 (Nanjing Cobioer, Cat. No. CBP61184) were used in KRAS cellular degradation, pERK inhibition and proliferation assays. The two cell lines were maintained following vendor's instructions. For monitoring KRAS (G12D) cellular degradation and pERK biomarker inhibition, cells were seeded into a 96-well plate with 22,000 and 16,000 cells/well for assays in ASPC-1 and PK-59, respectively. Cells were incubated at 37° C. with 5% CO2 and cell density was monitored until ^~90% confluency was reached. Compounds were serially diluted at a 1:3 ratio and dispensed into each well at final concentrations ranging from […] to 1.5 nM. After incubation for 24 hours, the culture media were removed and the cells were subjected to fixation, permeabilization and blocking (Intercept blocking buffer, Li-cor). For KRAS (G12D) degradation, the cells were treated with primary antibody (KRAS G12D antibody, Cell Signaling Technologies, Cat. No. CST14429) and for β-actin (β-actin mAb, Beyotime, Cat. No. AF-5001), and followed by secondary antibodies, Anti-rabbit IgG (H+L) (DyLight™ 800 4×PEG Conjugate) or IRDye® 680RD Goat anti-Mouse IgG. For pERK inhibition assay, cells were treated with primary antibodies for pERK (Phospho-p44/42 MAPK (Erk1/2) (Thr202/Tyr204) (D13.14.4E) XP® Rabbit mAb, Cell Signaling Technologies, Cat. No. CST-4370) and β-actin (β-actin mAb, Beyotime, Cat. No. AF-5001), and followed by secondary antibodies, Anti-rabbit IgG (H+L) (DyLight™ 800 4×PEG Conjugate) or IRDye® 680RD Goat anti-Mouse IgG. Fluorescence signals were read on Odyssey CLX instrument. For cell proliferation assays, cells were seeded into a 96-well plate at 3,500 and 800 cells/well for assays in ASPC-1 and PK-59, respectively. Cells were incubated at 37° C. with 5% CO2 for overnight. Compounds were serially diluted at a 1:3 ratio and dispensed into each well at final concentrations ranging from […] to 1.5 nM. After incubation for 6 days, cell viability reagent (CellTiter Glo, Promega, Cat. No. G7573) was added to each well and luminescence was recorded on Molecular Devices Spectramax iD3 instrument. IC50, half-maximal inhibitory concentration for pERK inhibition or cell proliferation, and DC50, half-maximal degradation concentration in KRAS (G12D) cellular degradation were determined by fitting the corresponding dose response curves using GraphPad Prism software.
Wherein “A” means the value <10 nM, “B” means 10 nM<the value <100 nM, “C” means 100 nM<the value <1000 nM, and “D” means the value >1000 nM, in which, the value means the value of DC50 or IC50. NT means not tested.
For the compound `Cc1ncsc1-c1ccc([C@H](CO)NC(=O)[C@@H]2C[C@@H](O)CN2C(=O)[C@H](C(C)C)n2cc(-c3ccc(COc4c(-c5c(C)c(F)cc6[nH]ncc56)c(C5CC5)cc5c(N6C[C@H]7C[C@@H]6CN7)nc(OC6CCOCC6)nc45)cc3)nn2)cc1` (single isomer, unassigned) [Example 5A], the 50% degradation concentration (DC50) is under 10 nM.

`Cc1ncsc1-c1ccc([C@H](CO)NC(=O)[C@@H]2C[C@@H](O)CN2C(=O)[C@H](C(C)C)n2cc(-c3ccc(COc4c(-c5c(C)c(F)cc6[nH]ncc56)c(C5CC5)cc5c(N6C[C@H]7C[C@@H]6CN7)nc(OC6CCOCC6)nc45)cc3)nn2)cc1` (single isomer, unassigned) [Example 5B]: the DC50 is over 1000 nM.

Regarding `CO[C@@H](C)COc1nc(N2C[C@H]3C[C@@H]2CN3)c2cc(C3CC3)c(-c3c(C)c(F)cc4n[nH]cc34)c(OCc3ccc(-c4cn([C@H](C(=O)N5C[C@H](O)C[C@H]5C(=O)N[C@@H](CO)c5ccc(-c6c(C)noc6C)cc5)C(C)C)nn4)cc3)c2n1` (single isomer, unassigned) [Example 6B], the 50% degradation concentration (DC50) is over 1000 nM.

As for `CCn1nccc1-c1ccc(CNC(=O)[C@@H]2C[C@@H](O)CN2C(=O)[C@H](C(C)C)n2cc(-c3ccc(COc4c(-c5c(C)c(F)cc6[nH]ncc56)c(C5CC5)cc5c(N6C[C@H]7C[C@@H]6CN7)nc(OC[C@H](C)OC)nc45)cc3)nn2)cc1` (single isomer, unassigned) [Example 7B], the DC50 was over 1000 nM.

As for `CO[C@@H](C)COc1nc(N2C[C@H]3C[C@@H]2CN3)c2cc(C3CC3)c(-c3c(C)c(F)cc4[nH]ncc34)c(OCc3ccc(-c4cn([C@H](C(=O)N5C[C@H](O)C[C@H]5C(=O)NCc5ccc(-c6scnc6C)cc5)C(C)C)nn4)cc3)c2n1` (single isomer, unassigned) [Example 11B], the half-maximal degradation concentration (DC50) was over 1000 nM.

`CO[C@@H](C)COc1nc(N2CC3CCC(C2)N3)c2cc(C3CC3)c(-c3c(C)c(F)cc4[nH]ncc34)c(OCc3ccc(-c4cn([C@H](C(=O)N5C[C@H](O)C[C@H]5C(=O)N[C@@H](CO)c5ccc(-c6scnc6C)cc5)C(C)C)nn4)cc3)c2n1` (single isomer, unassigned) [Example 12B] registered a half-maximal degradation concentration (DC50) of over 1000 nM.

`CCn1nccc1-c1ccc([C@H](CO)NC(=O)[C@@H]2C[C@@H](O)CN2C(=O)[C@H](C(C)C)n2cc(-c3ccc(COc4c(-c5c(C)c(F)cc6[nH]ncc56)c(C5CC5)cc5c(N6CC7CCC(C6)N7)nc(OC[C@H](C)OC)nc45)cc3)nn2)cc1` (single isomer, unassigned) [Example 13B]: the DC50 is over 1000 nM.

Consider `CCn1nccc1-c1ccc([C@H](CO)NC(=O)[C@@H]2C[C@@H](O)CN2C(=O)[C@H](C(C)C)n2cc(-c3ccc(COc4c(-c5c(C)c(F)cc6[nH]ncc56)c(C5CC5)cc5c(N6C[C@H]7C[C@@H]6CN7)nc(OC6CCOCC6)nc45)cc3)nn2)cc1` (single isomer, unassigned) [Example 16B], for which the DC50 is over 1000 nM.

On to `CO[C@@H](C)COc1nc(N(C)[C@H]2CCNC2)c2cc(C3CC3)c(-c3c(C)c(F)c(F)c4[nH]ncc34)c(OCc3ccc(-c4cn([C@H](C(=O)N5C[C@H](O)C[C@H]5C(=O)N[C@H](c5ccc(-c6scnc6C)cc5)C(C)O)C(C)C)nn4)cc3)c2n1` (stereo in doubt) [Example 145, (2S,4R)-1-((2S)-2-(4-(4-(((6-cyclopropyl-7-(6,7-difluoro-5-methyl-1H-indazol-4-yl)-2-((S)-2-methoxypropoxy)-4-(methyl((S)-pyrrolidin-3-yl)amino)quinazolin-8-yl)oxy)methyl)phenyl)-1H-1,2,3-triazol-1-yl)-3-methylbutanoyl)-4-hydroxy-N-((1R,2R)-2-hydroxy-1-(4-(4-methylthiazol-5-yl)phenyl)propyl)pyrrolidine-2-carboxamide], for which the DC50 was under 10 nM.

`CCn1nccc1-c1ccc([C@H](CO)NC(=O)[C@@H]2C[C@@H](O)CN2C(=O)[C@H](C(C)C)n2cc(-c3ccc(COc4c(-c5c(C)c(F)cc6[nH]ncc56)c(C5CC5)cc5c(N6CCNCCC6C)nc(OC[C@H](C)OC)nc45)cc3)nn2)cc1` (stereo in doubt) [Example 153, (2S,4R)-1-((2S)-2-(4-(4-(((6-cyclopropyl-7-(6-fluoro-5-methyl-1H-indazol-4-yl)-2-((S)-2-methoxypropoxy)-4-((S)-7-methyl-1,4-diazepan-1-yl)quinazolin-8-yl)oxy)methyl)phenyl)-1H-1,2,3-triazol-1-yl)-3-methylbutanoyl)-N—((R)-1-(4-(1-ethyl-1H-pyrazol-5-yl)phenyl)-2-hydroxyethyl)-4-hydroxypyrrolidine-2-carboxamide] had a 50% degradation concentration (DC50) of 10 to 100 nM.

`CCn1nccc1-c1ccc([C@H](CO)NC(=O)[C@@H]2C[C@@H](O)CN2C(=O)[C@H](C(C)C)n2cc(-c3ccc(COc4c(-c5c(C)c(F)cc6[nH]ncc56)c(C5CC5)cc5c(N6CC7COCC(C6)N7)nc(OC[C@H](C)OC)nc45)cc3)nn2)cc1` [Example 37, (2S,4R)-1-((2S)-2-(4-(4-(((4-(3-oxa-7,9-diazabicyclo[3.3.1]nonan-7-yl)-6-cyclopropyl-7-(6-fluoro-5-methyl-1H-indazol-4-yl)-2-((S)-2-methoxypropoxy)quinazolin-8-yl)oxy)methyl)phenyl)-1H-1,2,3-triazol-1-yl)-3-methylbutanoyl)-N—((R)-1-(4-(1-ethyl-1H-pyrazol-5-yl)phenyl)-2-hydroxyethyl)-4-hydroxypyrrolidine-2-carboxamide] displayed a DC50 of 10 to 100 nM.

As to `CCn1nccc1-c1ccc([C@H](CO)NC(=O)[C@@H]2C[C@@H](O)CN2C(=O)[C@H](C(C)C)n2cc(-c3ccc(COc4c(-c5c(C)c(F)cc6[nH]ncc56)c(C5CC5)cc5c(N6CCC[C@](C)(O)C6)nc(OC[C@H](C)OC)nc45)cc3)nn2)cc1` [Example 39, (2S,4R)-1-((2S)-2-(4-(4-(((6-cyclopropyl-7-(6-fluoro-5-methyl-1H-indazol-4-yl)-4-((S)-3-hydroxy-3-methylpiperidin-1-yl)-2-((S)-2-methoxypropoxy)quinazolin-8-yl)oxy)methyl)phenyl)-1H-1,2,3-triazol-1-yl)-3-methylbutanoyl)-N—((R)-1-(4-(1-ethyl-1H-pyrazol-5-yl)phenyl)-2-hydroxyethyl)-4-hydroxypyrrolidine-2-carboxamide], the DC50 fell in the range of 10 to 100 nM.

On to `CCn1nccc1-c1ccc([C@H](CO)NC(=O)[C@@H]2C[C@@H](O)CN2C(=O)[C@H](C(C)C)n2cc(-c3ccc(COc4c(-c5c(C)c(F)c(F)c6[nH]ncc56)c(C5CCC5)cc5c(N6C[C@@H]7C[C@H]6CN7)nc(OC[C@H](C)OC)nc45)cc3)nn2)cc1` [Example 106, (2S,4R)-1-((2S)-2-(4-(4-(((4-((1S,4S)-2,5-diazabicyclo[2.2.1]heptan-2-yl)-6-cyclobutyl-7-(6,7-difluoro-5-methyl-1H-indazol-4-yl)-2-((S)-2-methoxypropoxy)quinazolin-8-yl)oxy)methyl)phenyl)-1H-1,2,3-triazol-1-yl)-3-methylbutanoyl)-N—((R)-1-(4-(1-ethyl-1H-pyrazol-5-yl)phenyl)-2-hydroxyethyl)-4-hydroxypyrrolidine-2-carboxamide], for which the DC50 fell in the range of 10 to 100 nM.

Take `CO[C@@H](C)COc1nc(N2C[C@@H]3C[C@H]2CN3)c2cc(C3CC3)c(-c3c(C)c(F)cc4[nH]ncc34)c(OCc3ccc(-c4cn([C@H](C(=O)N5C[C@H](O)C[C@H]5C(=O)N[C@H](C#Cc5cnccc5Cl)CO)C(C)C)nn4)cc3)c2n1` [Example 108, (2S,4R)-1-((2S)-2-(4-(4-(((4-((1S,4S)-2,5-diazabicyclo[2.2.1]heptan-2-yl)-6-cyclopropyl-7-(6-fluoro-5-methyl-1H-indazol-4-yl)-2-((S)-2-methoxypropoxy)quinazolin-8-yl)oxy)methyl)phenyl)-1H-1,2,3-triazol-1-yl)-3-methylbutanoyl)-N—((R)-4-(4-chloropyridin-3-yl)-1-hydroxybut-3-yn-2-yl)-4-hydroxypyrrolidine-2-carboxamide]: the DC50 lay in the range of 10 to 100 nM.
